# According to patent US12077555B2, “STAT degraders and uses thereof” (Kymera Therapeutics, Inc., priority 2019, dated 2024):
# Target: STAT3 (Homo sapiens, UniProt P40763)
# Experiment: STAT3 HiBiT degradation assay in transfected A549 cells
# Format: cell-based
# Parameters: expressed in transfected cells; host or cells: A549
# Conditions: A549, 24 h; read-out: STAT3 HiBiT A549 degradation 24 h: Average external-Abs DC50
# Procedure, shortened: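 Degradation read as HiBiT-tagged STAT3 luminescence (Nano-Glo lytic reagent, 10 min, room temperature) following 24 h compound treatment of transfected A549 cells at 3-fold, 10 points. Percent remaining signal computed against controls and fitted with a four-parameter logistic; DC50 reported as letter bins (A <0.01 to D >1.0 µM).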
# STAT3, sequence (P40763 whole entry): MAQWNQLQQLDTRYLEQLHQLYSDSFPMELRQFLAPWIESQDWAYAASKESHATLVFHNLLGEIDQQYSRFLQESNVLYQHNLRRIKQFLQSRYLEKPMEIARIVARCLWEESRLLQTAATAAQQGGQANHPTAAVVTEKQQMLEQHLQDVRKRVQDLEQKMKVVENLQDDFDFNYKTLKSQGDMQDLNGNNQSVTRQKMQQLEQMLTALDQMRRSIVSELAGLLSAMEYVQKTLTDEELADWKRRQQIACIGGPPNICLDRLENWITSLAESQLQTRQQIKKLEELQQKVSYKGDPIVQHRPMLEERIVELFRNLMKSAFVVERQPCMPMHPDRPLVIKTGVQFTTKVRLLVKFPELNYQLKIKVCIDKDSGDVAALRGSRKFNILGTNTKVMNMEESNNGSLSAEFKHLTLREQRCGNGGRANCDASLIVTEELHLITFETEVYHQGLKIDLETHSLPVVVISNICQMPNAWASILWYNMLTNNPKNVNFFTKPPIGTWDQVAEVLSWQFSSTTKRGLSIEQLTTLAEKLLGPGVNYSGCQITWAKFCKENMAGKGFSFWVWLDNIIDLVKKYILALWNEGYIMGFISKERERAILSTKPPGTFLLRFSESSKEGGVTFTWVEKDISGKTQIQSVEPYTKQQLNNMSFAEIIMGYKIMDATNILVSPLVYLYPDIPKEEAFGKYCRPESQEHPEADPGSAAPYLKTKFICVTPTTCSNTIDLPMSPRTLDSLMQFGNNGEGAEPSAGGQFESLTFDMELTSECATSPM
row,SMILES,DC50 [nM]
1,"Cc1ncsc1-c1ccc([C@H](C)NC(=O)[C@@H]2C[C@@H](O)CN2C(=O)[C@@H](NC(=O)CCCCCc2cccc(OC[C@@H](NC(=O)[C@@H]3Cc4cccc5c4N3C(=O)[C@@H](NC(=O)c3cc4cc(C(=O)P(=O)(O)O)ccc4[nH]3)CC5)C(N)=O)c2C)C(C)(C)C)cc1 [Compound I-205, diammonium 2-[[(2S,11S)-2-[[(2S)-4-carbamoyl-1-[3-[5-[[(2S)-1-[(2S,4R)-4-hydroxy-2-[[(1S)-1-[4-[4-methyl-1,3-thiazol-5-yl)phenyl]ethyl]carbamoyl]pyrrolidin-1-yl]-3,3-dimethyl-1-oxobutan-2-yl]carbamoyl]pentyl)-2-methylphenoxy]butan-2-yl]carbamoyl]-12-oxo-1-azatricyclo[6.4.1.0^[4,13]]trideca-4(13),5,7-trien-11-yl]carbamoyl]-1H-indole-5-carbonylphosphonate]",10 to 100
2,"Cc1ncsc1-c1ccc(C2(NC(=O)[C@@H]3C[C@@H](O)CN3C(=O)[C@@H](NC(=O)CCCCCc3cccc(OC[C@H](CCC(N)=O)NC(=O)[C@@H]4Cc5cccc6c5N4C(=O)[C@@H](NC(=O)c4cc5cc(C(=O)P(=O)(O)O)ccc5[nH]4)CC6)c3)C(C)(C)C)CC2)cc1 [Compound I-206, diammonium 2-[[(2S,11S)-2-[[(2S)-4-carbamoyl-1-[3-(5-[[(2S)-1-[(2S,4R)-4-hydroxy-2-([1-[4-[4-methyl-1,3-thiazo1-5-yl)phenyl]cyclopropyl]carbamoyl)pyrrolidin-1-yl]-3,3-dimethyl-1-oxobutan-2-yl]carbamoyl]pentyl)phenoxy]butan-2-yl]carbamoyl]-12-oxo-1-azatricyclo[6.4.1.0^[4,13]]trideca-4(13),5,7-trien-11-yl]carbamoyl]-1H-indole-5-carbonylphosphonate]",10 to 100
3,Cc1ncsc1-c1ccc([C@H](C)NC(=O)[C@@H]2C[C@@H](O)CN2C(=O)[C@@H](NC(=O)CCCCCc2ccc(F)c(OC[C@H](CCC(N)=O)NC(=O)[C@@H]3Cc4cccc5c4N3C(=O)[C@@H](NC(=O)c3cc4cc(C(=O)P(=O)(O)O)ccc4[nH]3)CC5)c2)C(C)(C)C)cc1 [Compound I-207],100 to 1000
4,"Cn1c(=O)n(C2CCC(=O)NC2=O)c2ccc(C3CC(CCCCC(=O)N4CC[C@H]5CC[C@@H](C(=O)N[C@@H](CCC(N)=O)C(=O)NC(c6ccccc6)c6ccccc6)N5C(=O)[C@@H](NC(=O)c5cc6cc(C(=O)P(=O)(O)O)ccc6[nH]5)C4)C3)cc21 (stereo partly drawn) [Compound I-208, 2-[[(5S,8S,10aR)-8-[[(1S)-3-carbamoyl-1-(diphenylmethylcarbamoyl)propyl]carbamoyl]-3-(5-[3-[1-(2,6-dioxopiperidin-3-yl)-3-methyl-2-oxo-1,3-benzodiazol-5-yl]cyclobutyl]pentanoyl)-6-oxo-octahydropyrrolo[1,2-a][1,5]diazocin-5-yl]carbamoyl]-1H-indole-5-carbonylphosphonic acid]",100 to 1000
5,Cc1ncsc1-c1ccc([C@H](C)NC(=O)[C@@H]2C[C@@H](O)CN2C(=O)[C@@H](NC(=O)CCCCCc2cccc(NC(=O)[C@H](CCC(N)=O)NC(=O)[C@@H]3Cc4cccc5c4N3C(=O)[C@@H](NC(=O)c3cc4cc(C(=O)P(=O)(O)O)ccc4[nH]3)CC5)c2)C(C)(C)C)cc1 [Compound I-209],10 to 100
6,"Cc1ncsc1-c1ccc(CNC(=O)[C@@H]2C[C@@H](O)CN2C(=O)[C@@H](NC(=O)CCCCCc2cccc(O[C@H](C)[C@H](CCC(N)=O)NC(=O)[C@@H]3Cc4cccc5c4N3C(=O)[C@@H](NC(=O)c3cc4cc(C(=O)P(=O)(O)O)ccc4[nH]3)CC5)c2)C(C)(C)C)cc1 [Compound I-210, 2-[[(2S,11S)-2-[[(3S,4R)-1-carbamoyl-4-[3-(5-[[(2S)-1-[(2S,4R)-4-hydroxy-2-([[4-(4-methyl-1,3-thiazol-5-yl)phenyl]methyl]carbamoyl)pyrrolidin-1-yl]-3,3-dimethyl-1-oxobutan-2-yl]carbamoyl]pentyl)phenoxy]pentan-3-yl]carbamoyl]-12-oxo-1-azatricyclo[6.4.1.0^[4,13]]trideca-4(13),5,7-trien-11-yl]carbamoyl]-1H-indole-5-carbonylphosphonic acid]",> 1000
7,"Cc1ncsc1-c1ccc([C@H](C)NC(=O)[C@@H]2C[C@@H](O)CN2C(=O)[C@@H](NC(=O)CCCCc2cccc(OC[C@H](CCC(N)=O)NC(=O)[C@@H]3Cc4cccc5c4N3C(=O)[C@@H](NC(=O)c3cc4cc(C(=O)P(=O)(O)O)ccc4[nH]3)CC5)c2)C(C)(C)C)cc1 [Compound I-211, diammonium 2-[[(2S,11S)-2-[[(2S)-4-carbamoyl-1-[3-(4-[[(2S)-1-[(2S,4R)-4-hydroxy-2-[[(1S)-1-[4-(4-methyl-1,3-thiazol-5-yl)phenyl]ethyl]carbamoyl]pyrrolidin-1-yl]-3,3-dimethyl-1-oxobutan-2-yl]carbamoyl]butyl)phenoxy]butan-2-yl]carbamoyl]-12-oxo-1-azatricyclo[6.4.1.0^[4,13]]trideca-4(13),5,7-trien-11-yl]carbamoyl]-1H-indole-5-carbonylphosphonate]",10 to 100
8,"Cc1ccc(OC[C@H](CCC(N)=O)NC(=O)[C@@H]2Cc3cccc4c3N2C(=O)[C@@H](NC(=O)c2cc3cc(C(=O)P(=O)(O)O)ccc3[nH]2)CC4)cc1CCCCCC(=O)N[C@H](C(=O)N1C[C@H](O)C[C@H]1C(=O)N[C@@H](C)c1ccc(-c2scnc2C)cc1)C(C)(C)C [Compound I-212, 2-[[(2S,11S)-2-[[(2S)-4-carbamoyl-1-[3-(5-[[(2S)-1-[(2S,4R)-4-hydroxy-2-[[(1S)-1-[4-(4-methyl-1,3-thiazol-5-yl)phenyl]ethyl]carbamoyl]pyrrolidin-1-yl]-3,3-dimethyl-1-oxobutan-2-yl]carbamoyl]pentyl)-4-methylphenoxy]butan-2-yl]carbamoyl]-12-oxo-1-azatricyclo[6.4.1.0^[4,13]]trideca-4(13),5,7-trien-11-yl]carbamoyl]-1H-indole-5-carbonylphosphonic acid]",10 to 100
9,"Cc1cc(CCCCCC(=O)N[C@H](C(=O)N2C[C@H](O)C[C@H]2C(=O)N[C@@H](C)c2ccc(-c3scnc3C)cc2)C(C)(C)C)cc(OC[C@H](CCC(N)=O)NC(=O)[C@@H]2Cc3cccc4c3N2C(=O)[C@@H](NC(=O)c2cc3cc(C(=O)P(=O)(O)O)ccc3[nH]2)CC4)c1 [Compound I-213, 2-[[(2S,11S)-2-[[(2S)-4-carbamoyl-1-[3-(5-[[(2S)-1-[(2S,4R)-4-hydroxy-2-[[(1S)-1-[4-(4-methyl-1,3-thiazol-5-yl)phenyl]ethyl]carbamoyl]pyrrolidin-1-yl]-3,3-dimethyl-1-oxobutan-2-yl]carbamoyl]pentyl)-5-methylphenoxy]butan-2-yl]carbamoyl]-12-oxo-1-azatricyclo[6.4.1.0^[4,13]]trideca-4(13),5,7-trien-11-yl]carbamoyl]-1H-indole-5-carbonylphosphonic acid]",< 10
10,"Cc1ccc(CCCCCC(=O)N[C@H](C(=O)N2C[C@H](O)C[C@H]2C(=O)N[C@@H](C)c2ccc(-c3scnc3C)cc2)C(C)(C)C)cc1OC[C@H](CCC(N)=O)NC(=O)[C@@H]1Cc2cccc3c2N1C(=O)[C@@H](NC(=O)c1cc2cc(C(=O)P(=O)(O)O)ccc2[nH]1)CC3 [Compound I-214, 2-[[(2S,11S)-2-[[(2S)-4-carbamoyl-1-[5-(5-[[(2S)-1-[(2S,4R)-4-hydroxy-2-[[(1S)-1-[4-(4-methyl-1,3-thiazol-5-yl)phenyl]ethyl]carbamoyl]pyrrolidin-1-yl]-3,3-dimethyl-1-oxobutan-2-yl]carbamoyl]pentyl)-2-methylphenoxy]butan-2-yl]carbamoyl]-12-oxo-1-azatricyclo[6.4.1.0^[4,13]]trideca-4(13),5,7-trien-11-yl]carbamoyl]-1H-indole-5-carbonylphosphonic acid]",> 1000
